“And” between values parts separate entries of the source, which are not always exact repeats. Equal values may be shown once. Read-outs that look alike come from different tables or passages of the source.
How the values were obtained:
BCL-2 = BCL-2 (Homo sapiens (Human), UniProt P10415); assay: Protein-protein interaction assay BCL-2/Bad BH3 peptide (BCL-2 assay, TR-FRET); assay type: binding; conditions: His-BCL-2 / Bad BH3 peptide, median
Experimental: Assay 3 Protein-Protein Interaction Assay: BCL-2/Bad BH3 Peptide (BCL-2 Assay)
The dose-dependent inhibition by the compounds described in this invention of the interaction between BCL-2 and the BH3 domain of Bad (both human) was determined using a steady state binding competition assay with time-resolved fluorescence energy transfer (TR-FRET) readout. For that purpose BCL-2 (amino acids 1-211, C-terminal fused to a hexahistidine (6×His) tag (SEQ ID 5) and a synthetic Bad BH3-derived peptide of sequence Biotin-PEG2-PEG2-NLWAAQRYGRELRR-Nle-SDEFVDSFKK-amide (SEQ ID 4) served as protein receptor and tracer ligand respectively. The recombinant BCL-2 protein (expressed in E. coli) was purchased from BPS Bioscience (San Diego, Calif., USA). The Bad BH3-derived peptide can be obtained from e.g. Biosyntan (Berlin, Germany).
In the assay 11 different concentrations of each compound (0.1 nM, 0.33 nM, 1.1 nM, 3.8 nM, 13 nM, 44 nM, 0.15 μM, 0.51 μM, 1.7 μM, 5.9 μM and 20 μM) were typically measured as duplicates in the same microtiter plate. For that, 100-fold concentrated DMSO solutions were prepared by serial dilutions (1:3.4) of a 2 mM stock solution in a clear, 384-well microtiter plate (Greiner Bio-One, Frickenhausen, Germany). From there, 50 nl were transferred in a dark test plate (Greiner Bio-One, Frickenhausen, Germany). The assay was initiated by addition of 2 μl of a 2.5-fold concentrated His-BCL-2 solution (usually for a 1 nM end concentration in 5 μl reaction volume) in aqueous assay buffer [50 mM Tris/HCl pH 7, 100 mM sodium chloride (NaCl), 50 mM potassium fluoride (KF), 0.005% Tween-20, 2 mM DTT, 0.1% bovine gamma globulin (BGG)] to the compounds in the assay plate. This was followed by a 10-minute incubation step at 22° C. for pre-equilibration of the putative complex between His-BCL-2 and the compounds. After that, 3 μl of a 1.67-fold concentrated solution (in assay buffer) consisting of Bad BH3-derived peptide (1 nM end concentration) and TR-FRET detection reagents [1.67 nM anti-His-Eu cryptate and 1.67 nM streptavidin-XL665 (both from Cisbio Bioassays, Codolet, France)], were added.
The mixture was incubated in the dark for one hour at 22° C. and then overnight at 4° C. The formation of BCL-2/Bad complexes was determined by measuring the resonance energy transfer of the anti-His-Eu-cryptate antibody to the streptavidin-XL665 present in the reaction. For that purpose, the fluorescence emission at 620 nm and 665 nm after excitation at 330-350 nm was measured in a TR-FRET measuring instrument, for instance a Rubystar or a Pherastar (both from BMG Lab Technologies, Offenburg, Germany) or a Viewlux (Perkin-Elmer). The ratio of the emission at 665 nm and at 622 nm was used as indicator of the amount of BCL-2/Bad complexes present.
The resulting data (ratio) were normalized, taking 0% inhibition as the mean value of control measurements (usually 32 data points) where all reagents were included. In this case 50 nl DMSO were used instead of compounds. A 100% inhibition corresponded to the mean value of control measurements (usually 32 data points) where all reagents except BCL-2 were included. IC50 values were determined by regression analysis based on a 4 parameter equation (minimum, maximum, IC50, Hill; Y=Max+(Min−Max)/(1+(X/IC50)^HiII) using the Screener Software (Genedata).

SUDHL5 [1] = assay: Induction of caspase-3/7 activity (Assay 4), SUDHL5; assay type: cell-based; conditions: caspase-3/7 induction, median
Summary of the method: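 DLBCL cells were exposed to compounds for 3 hours at 37 °C, then caspase-3/7 activation was read with Caspase-Glo 3/7 reagent. After subtracting medium-only background, EC50s were derived with fixed C0=1 and the reference compound's maximal induction as plateau.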

SUDHL5 [2] = assay: Antiproliferation assay (Assay 7), SUDHL5; assay type: cell-based; conditions: CellTiter-Glo, median, read-out: Antiproli SUDHL5 [M] (median) IC50
Summary of the method: (§1)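 Plate cells in treatment and day 0 reference plates; read day 0 plate with CellTiter-Glo after 10 min; incubate treated plates 72 h at 37° C; read them identically.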

AMO-1 = assay: Antiproliferation assay (Assay 7), AMO-1; assay type: cell-based; conditions: CellTiter-Glo, several values per example
Summary of the method: as §1

SUDHL10 = assay: Induction of cytotoxicity (Assay 6), SUDHL10; conditions: read-out: Cytotox SUDHL10 [M] (median) IC50, CellTiter-Glo, 5 hours, SUDHL10
[3] = Homo sapiens, AMO1, 72 h, read-out: Antiproli AMO-1 [M] IC50
[4] = 72 hours, read-out: Antiproli AMO-1 [M] IC50

Sequence of BCL-2 (P10415 other isoform, or with tags, fused parts or gaps): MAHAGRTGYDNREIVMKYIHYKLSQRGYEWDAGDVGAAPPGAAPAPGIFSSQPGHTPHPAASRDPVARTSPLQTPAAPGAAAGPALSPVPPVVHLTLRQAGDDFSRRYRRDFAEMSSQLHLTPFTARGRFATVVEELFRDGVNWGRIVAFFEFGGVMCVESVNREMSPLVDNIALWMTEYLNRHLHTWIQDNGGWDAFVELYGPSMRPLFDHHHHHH

SMILES | IC50 (BCL-2) | EC50 (SUDHL5 [1]; Homo sapiens, SU-DHL-5, 3 h) | IC50 (SUDHL5 [2]; Homo sapiens, SU-DHL-5, 72 h) | EC50 (SUDHL5 [1]; 3 hours) | IC50 (SUDHL5 [2]; 72 hours) | IC50 (AMO-1; [3]) | IC50 (SUDHL10; Homo sapiens, SU-DHL10, 5 h) | IC50 (AMO-1; [4]) | IC50 (SUDHL10) | IC50 (AMO-1; 72 hours, listed as 08, read-out: Antiproli AMO-1 [M] IC50)
Cc1c2c(nn1C)CN(C)S(=O)(=O)CCCn1c(C(=O)O)c(CCCOc3cccc4c3CCCC4)c3ccc(F)c-2c31 (racemic) [Example 29, (rac)-13-Fluoro-8,11,12-trimethyl-1-(3-((5,6,7,8-tetrahydronaphthalen-1-yl)oxy)propyl)-5,6,9,11-tetrahydro-4H,8H-pyrazolo[3′,4′:4,5][1]thia[2,8]diazacycloundecino[6,7,8-hi]indole-2-carboxylic acid 7,7-dioxide] | > 20 µM | 1.5 µM | 5e-07 M |  |  | 7.1e-06 M | 3.8e-06 M |  |  | 
CCc1c2c(nn1C)CN(C)S(=O)(=O)CCCn1c(C(=O)O)c(CCCOc3cccc4ccccc34)c3ccc(F)c-2c31 (racemic) [Example 31, (rac)-12-Ethyl-13-fluoro-8,11-dimethyl-1-(3-(naphthalen-1-yloxy)propyl)-5,6,9,11-tetrahydro-4H,8H-pyrazolo[3′,4′:4,5][1]thia[2,8]diazacycloundecino[6,7,8-hi]indole-2-carboxylic acid 7,7-dioxide] | > 20 µM | 0.8 µM | 5.3e-07 M |  |  | 4.2e-06 M | 1.9e-06 M | 3.9e-06 M |  | 
CCc1c2c(nn1C)CN(C)S(=O)(=O)CCCn1c(C(=O)O)c(CCCOc3cccc4c3CCC4)c3ccc(F)c-2c31 (racemic) [Example 32, (rac)-1-(3-((2,3-Dihydro-1H-inden-4-yl)oxy)propyl)-12-ethyl-13-fluoro-8,11-dimethyl-5,6,9,11-tetrahydro-4H,8H-pyrazolo[3′,4′:4,5][1]thia[2,8]diazacycloundecino[6,7,8-hi]indole-2-carboxylic acid 7,7-dioxide] | > 20 µM | 0.58 µM | 3.9e-07 M |  |  | 2.4e-06 M | 1.2e-06 M | 3.9e-06 M |  | 
CCc1c2c(nn1C)CN(C)S(=O)(=O)CCCn1c(C(=O)O)c(CCCOc3ccc(F)c4ccccc34)c3ccc(F)c-2c31 (racemic) [Example 35, (rac)-12-Ethyl-13-fluoro-1-(34(4-fluoronaphthalen-1-yl)oxy)propyl)-8,11-dimethyl-5,6,9,11-tetrahydro-4H,8H-pyrazolo[3′,4′:4,5][1]thia[2,8]diazacycloundecino[6,7,8-hi]indole-2-carboxylic acid 7,7-dioxide] | > 20 µM | 1.2 µM | 7.6e-07 M |  |  | 5.2e-06 M | 2.7e-06 M | 6.6e-06 M |  | 
Cc1c2c(nn1C)CN(C1CC1)S(=O)(=O)CCCn1c(C(=O)O)c(CCCOc3cccc4cc(F)ccc34)c3ccc(Cl)c-2c31 (racemic) [Example 41, (rac)-4-chloro-14-cyclopropyl-7-{3-[(6-fluoro-1-naphthyl)oxy]propyl}-2,3-dimethyl-11,12,14,15-tetrahydro-2H,10H-pyrazolo[3′,4′:4,5][1,2,8]thiadiazacycloundecino[6,7,8-hi]indole-8-carboxylic acid 13,13-dioxide] | 19 µM |  |  | 0.82 µM | 1.2e-06 M |  |  | 8e-07 M | 1.7e-06 M | 
CCc1c2c(nn1C)CN(C)S(=O)(=O)CCCn1c(C(=O)O)c(CCCOc3cccc4cc(F)ccc34)c3ccc(F)c-2c31 (single isomer, unassigned; enantiomer 1) [Example 8, (+)-3-Ethyl-4-fluoro-7-{3-[(6-fluoronaphthalen-1-yl)oxy]propyl}-2,14-dimethyl-13,13-dioxo-10,11,12,13,14,15-hexahydro-2H-13λ^6-pyrazolo[3′,4′:4,5][1,2,8]thiadiazacycloundecino-[6,7,8-hi]indole-8-carboxylic acid (Enantiomer 1)] | > 20 µM |  |  | 0.58 µM | 7.6e-07 M |  |  |  | 1.1e-06 M | 1.5e-06 M

Now from value to molecule, other results behind:

IC50 (BCL-2) | EC50 (SUDHL5 [1]; Homo sapiens, SU-DHL-5, 3 h) | IC50 (SUDHL5 [2]; Homo sapiens, SU-DHL-5, 72 h) | EC50 (SUDHL5 [1]; 3 hours) | IC50 (SUDHL5 [2]; 72 hours) | SMILES | IC50 (AMO-1; [3]) | IC50 (SUDHL10; Homo sapiens, SU-DHL10, 5 h) | IC50 (AMO-1; [4]) | IC50 (SUDHL10) | IC50 (AMO-1; 72 hours, listed as 08, read-out: Antiproli AMO-1 [M] IC50)
> 20 µM | 1.1 µM | 9.2e-07 M |  |  | Cc1c2c(nn1C)C(CCN1CCOCC1)N(C)S(=O)(=O)CCCn1c(C(=O)O)c(CCCOc3cccc4ccccc34)c3cccc-2c31 (racemic) [Example 44, (rac)-2,3,14-trimethyl-15-[2-(rac)-(morpholin-4-yl)ethyl]-7-[3-(1-naphthyloxy)propyl]-11,12,14,15-tetrahydro-2H,10H-pyrazolo[3′,4′:4,5][1,2,8]thiadiazacycloundecino[6,7,8-hi]indole-8-carboxylic acid 13,13-dioxide (Mixture of Stereoisomers)] | 4.4e-06 M | 2.6e-06 M |  |  | 
17 µM |  |  | 0.037 µM | 5.6e-08 M | CCc1c2c(nn1C)C(CCC1CCOCC1)N(C)S(=O)(=O)CCCn1c(C(=O)O)c(CCCOc3cccc4cc(F)ccc34)c3ccc(Cl)c-2c31 (racemic) [Example 59, (rac)-4-chloro-3-ethyl-7-{3-[(6-fluoro-1-naphthyl)oxy]propyl}-2,14-dimethyl-15-[2-(tetrahydro-2H-pyran-4-yl)ethyl]-11,12,14,15-tetrahydro-2H,10H-pyrazolo[3′,4′:4,5][1,2,8]thiadiazacycloundecino[6,7,8-hi]indole-8-carboxylic acid 13,13-dioxide (Racemate 2)] |  |  | 2.1e-07 M | 1e-07 M | 
> 20 µM |  |  | 0.047 µM | 6e-08 M | Cc1c2c(nn1C)C(CCN1CCOCC1)N(C)S(=O)(=O)CCCn1c(C(=O)O)c(CCCOc3cccc4cc(F)ccc34)c3ccc(Cl)c-2c31 (racemic) [Example 65, (rac)-4-chloro-7-{3-[(6-fluoronaphthalen-1-yl)oxy]propyl}-2,3,14-trimethyl-15-(rac)-[2-(morpholin-4-yl)ethyl]-13,13-dioxo-10,11,12,13,14,15-hexahydro-2H-13lambda^6-pyrazolo[3′,4′:4,5][1,2,8]thiadiazacycloundecino[6,7,8-hi]indole-8-carboxylic acid (Mixture of Stereoisomers)] |  |  | 7.1e-08 M | 1e-07 M | 
18 µM |  |  | 0.085 µM | 1.4e-07 M | CCc1c2c(nn1C)CN(C)S(=O)(=O)CCCn1c(C(=O)O)c(CCCOc3cccc4cc(F)ccc34)c3ccc(Cl)c-2c31 (single isomer, unassigned; enantiomer 1) [Example 36, (+)-4-chloro-3-ethyl-7-{3-[(6-fluoronaphthalen-1-yl)oxy]propyl}-2,14-dimethyl-13,13-dioxo-10,11,12,13,14,15-hexahydro-2H-13lambda^6-pyrazolo[3′,4′:4,5][1,2,8]thiadiazacycloundecino-[6,7,8-hi]indole-8-carboxylic acid (Enantiomer 1)] |  |  | 4.5e-07 M and 5.3e-07 M | 2.4e-07 M | 

From US11401278B2, “Macrocyclic indole derivatives” (The Broad Institute, Inc., priority 2017, dated 2022)
